Source: patent publication US9849151B2, “Salacia compositions, methods of treatment by their administration, and methods of their preparation” (priority 2013, dated 2017)

How the values were obtained:
[1] = Antioxidant activity by DPPH assay; conditions: at 20 μM
Protocol: The capacity of plant extracts or fractions to directly react with and quench free radicals was evaluated as described earlier (Cheng et al 2006). A stock solution of DPPH (200 μM) was prepared in ethanol. The assay was performed in 96-well plates. The reaction mixture, containing 100 μL of DPPH and 100 μL of test sample, was incubated at 37° C. for 30 min. The absorbance was measured at 515 nm. Gallic acid was used as a positive control. Percent DPPH radical scavenging activity was calculated as follows. [Reference: Cheng Z, Morre J, Yub L (2006) J Agric Food Chem, 54: 7429-7436] % radical scavenging activity=[1−(sample-blank)/(control-blank)]×100

[2] = tested on: Hormone Sensitive lipase (HSL); assay: Hormone Sensitive Lipase assay, Western blot densitometry of adipocyte lysates; type: cell-based; conditions: 3T3L1 adipocytes treated 24 h, non-treated = 1.00
Protocol: The glycerol released after 24 h in the cell media was assessed using glycerol reagent (sigma) and expressed relative to the cellular protein content. The protein content was assessed using bicinchoninic acid (BCA) PierceTM kit. […] Proteins were collected from cell lysates of 3T3L1 adipocytes treated for 24 h with the Salacia composition or isoproterenol. Protein samples were blotted and probed for total hormone sensitive lipase (HSL), and phosphorylated hormone sensitive lipase at […]. Then, the ratio of phosphorylated-HSL to total HSL was compared between treated and non-treated samples.

[3] = tested on: 3T3L1 cells; assay: Lipolysis assay, glycerol release in 3T3L1 adipocytes; type: cell-based; conditions: 24 h, Salacia composition 100 ug/ml, isoproterenol 10 uM, ratio higher than 1.40 = enhances lipolysis
Protocol: The assay is carried out to assess the ability of the extracts to breakdown triglycerides to glycerol and free fatty acids. The Salacia composition, such as that of Example 1 was screened for lipolysis in 3T3L1 cell model. 3T3L1 preadipocytes were cultured for a week in Dulbecco modified Eagle's medium (DMEM) supplemented with 10% new calf serum, 25 mM glucose, 2 mM glutamine, 100 U/ml penicillin, 100 ug/ml streptomycin at 37° C. in 5% CO2 atmosphere until 100% confluence. Two days after confluence, the differentiation of 3T3L1 into adipocytes was initiated using (DMEM) supplemented with 10% fetal bovine serum (FBS), 25 mM glucose, 2 mM glutamine, 100 U/ml penicillin, 100 ug/ml streptomycin and differentiation inducers (0.5 mM isobutyl-methylxanthine (IBMX), 10 μg/ml insulin and 1 μM dexamethasone) for 48 h (day 0-day 2). The cells were then cultured for another 48 h with the same medium containing only 10 μg/ml insulin (day 2 to day 4), then with only the medium (day 4 to day 6). The Salacia composition, such as that of Example 1 was added to the medium at the concentration 100 ug/ml for 24 h and assessed for lipolysis. […] The glycerol released after 24 h in the cell media was assessed using glycerol reagent (sigma) and expressed relative to the cellular protein content. The protein content was assessed using bicinchoninic acid (BCA) PierceTM kit. […]

Compound | % radical scavenging activity (DPPH) [1] [%] | Phospho-HSL (densitometry) ([2]; Serine 563) | Ratio phosphorylated-HSL/Total HSL [2] | Total HSL (densitometry) [2] | Glycerol/protein ratio [3]
O=C(O)c1cc(O)c(O)c(O)c1 [Gallic acid] | 86 |  |  |  | 
CC(C)NCC(O)c1ccc(O)c(O)c1 (centres unmarked) [Isoproterenol] |  | 2.63 | 1.01 | 2.60 | 1.50
